Measurements reported in US8343983B2, “Substituted pyrazolo-pyrimidine compounds” (ArQule, Inc., priority 2009, dated 2013).
Read-outs that look alike come from different tables or passages of the source.

System: cancer cells
Assay: MTS assay: inhibition of cell growth (formazan absorbance at 492 nm after 72 hours with test compound)
Type: cell-based
Conditions: inhibition class
Method in brief: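 DMEM with 1% FBS; cells seeded at 3000/well and grown 18 h at 37 °C, then exposed to compound for 72 h and to MTS/PMS for 4 h. IC50 is the concentration giving a 50% absorbance drop; grades are % inhibition bands.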

[1] = Homo sapiens, DLD-1 cells, read-out: DLD-1, MTS 72 hours at 10 uM
[2] = Homo sapiens, KATO III cells, read-out: KATO III, MTS 72 hours at 10 uM
[3] = Homo sapiens, MDA-MB-231 cells, read-out: MDA-MB-231, MTS 72 hours at 10 uM
[4] = Homo sapiens, NCI-H1299 cells, read-out: NCI-H1299, MTS 72 hours at 10 uM
[5] = Homo sapiens, PC-3 cells, read-out: PC-3, MTS 72 hours at 10 uM
[6] = PACA-2 cells, read-out: PACA-2, MTS 72 hours at 10 uM

| SMILES | inhibition at 10 µM [1] [%] | inhibition at 10 µM [2] [%] | inhibition at 10 µM [3] [%] | inhibition at 10 µM [4] [%] | inhibition at 10 µM [5] [%] | inhibition at 10 µM [6] [%] |
| --- | --- | --- | --- | --- | --- | --- |
| Fc1ccc(CCNc2nc3c4c(n[nH]c4n2)CCN3c2ccccc2)cc1 [Compound 221, N-[2-(4-fluorophenyl)ethyl]-6-phenyl-2,6,7,8-tetrahydro-1,2,3,5,6-pentaazaacenaphthylen-4-amine] | < 50 | < 50 | < 50 | < 50 | < 50 | < 50 |
| CCOC(=O)C1CN(Cc2ccccc2)c2nc(SC)nc3[nH]nc1c23 (stereo not drawn) [Compound 222, ethyl 6-benzyl-4-(methylsulfanyl)-2,6,7,8-tetrahydro-1,2,3,5,6-pentaazaacenaphthylene-8-carboxylate] | < 50 | < 50 | < 50 | < 50 | < 50 | < 50 |
| CN(C)CCCNc1nc2c3c(n[nH]c3n1)C(C(=O)NCc1ccccc1)CN2Cc1ccccc1 (stereo not drawn) [Compound 223, N,6-dibenzyl-4-{[3-(dimethylamino)propyl]ami-no}-2,6,7,8-tetrahydro-1,2,3,5,6-pentaazaacenaphthylene-8-carboxamide] | < 50 | < 50 | < 50 | < 50 | < 50 | < 50 |
| COc1cccc(CCNc2nc3c4c(n[nH]c4n2)C(C(=O)NCc2ccccc2)CN3Cc2ccccc2)c1 (stereo not drawn) [Compound 224, N,6-dibenzyl-4-{[2-(3-methoxyphenyl)ethyl]amino}-2,6,7,8-tetrahydro-1,2,3,5,6-pentaazaacenaphthylene-8-carboxamide] | < 50 | < 50 | < 50 | < 50 | < 50 | < 50 |
| O=C(NCc1ccccc1)C1CN(Cc2ccccc2)c2nc(NCc3ccco3)nc3[nH]nc1c23 (stereo not drawn) [Compound 225, N,6-dibenzyl-4-[(furan-2-ylmethyl)amino]-2,6,7,8-tetrahydro-1,2,3,5,6-pentaazaacenaphthylene-8-carboxamide] | < 50 | < 50 | < 50 | < 50 | < 50 | < 50 |
| O=C(NCc1ccccc1)C1CN(Cc2ccccc2)c2nc(NCCc3c[nH]c4ccccc34)nc3[nH]nc1c23 (stereo not drawn) [Compound 226, N,6-dibenzyl-4-{[2-(1H-indol-3-yl)ethyl]amino}-2,6,7,8-tetrahydro-1,2,3,5,6-pentaazaacenaphthylene-8-carboxamide] | > 79 | > 79 | > 79 | > 79 | > 79 | > 79 |
| O=C(NCc1ccccc1)C1CN(Cc2ccccc2)c2nc(N3CCCCC3)nc3[nH]nc1c23 (stereo not drawn) [Compound 227, N,6-dibenzyl-4-piperidin-1-yl-2,6,7,8-tetrahydro-1,2,3,5,6-pentaazaacenaphthylene-8-carboxamide] | > 79 | 50 to 79 | > 79 | > 79 | > 79 | < 50 |
| CN1CCN(c2nc3c4c(n[nH]c4n2)C(C(=O)NCc2ccccc2)CN3Cc2ccccc2)CC1 (stereo not drawn) [Compound 228, N,6-dibenzyl-4-(4-methylpiperazin-1-yl)-2,6,7,8-tetrahydro-1,2,3,5,6-pentaazaacenaphthylene-8-carboxamide] | < 50 | < 50 | < 50 | < 50 | < 50 | < 50 |
| O=C(NCc1ccccc1)C1CN(Cc2ccccc2)c2nc(NCc3ccccc3Cl)nc3[nH]nc1c23 (stereo not drawn) [Compound 229, N,6-dibenzyl-4-[(2-chlorobenzyl)amino]-2,6,7,8-tetrahydro-1,2,3,5,6-pentaazaacenaphthylene-8-carboxamide] | < 50 | < 50 | < 50 | < 50 | 50 to 79 | < 50 |
| O=C(NCc1ccccc1)C1CN(Cc2ccccc2)c2nc(NCc3ccc(Oc4ccccc4)cc3)nc3[nH]nc1c23 (stereo not drawn) [Compound 230, N,6-dibenzyl-4-[(4-phenoxybenzyl)amino]-2,6,7,8-tetrahydro-1,2,3,5,6-pentaazaacenaphthylene-8-carboxamide] | > 79 | 50 to 79 | < 50 | 50 to 79 | 50 to 79 | < 50 |
| O=C(NCc1ccccc1)C1CN(Cc2ccccc2)c2nc(N3CCN(c4ccccc4)CC3)nc3[nH]nc1c23 (stereo not drawn) [Compound 231, N,6-dibenzyl-4-(4-phenylpiperazin-1-yl)-2,6,7,8-tetrahydro-1,2,3,5,6-pentaazaacenaphthylene-8-carboxamide] | 50 to 79 | 50 to 79 | > 79 | > 79 | 50 to 79 | 50 to 79 |
| O=C(NCc1ccccc1)C1CN(Cc2ccccc2)c2nc(NC3CCC3)nc3[nH]nc1c23 (stereo not drawn) [Compound 232, N,6-dibenzyl-4-(cyclobutylamino)-2,6,7,8-tetrahydro-1,2,3,5,6-pentaazaacenaphthylene-8-carboxamide] | < 50 | < 50 | < 50 | < 50 | < 50 | < 50 |
| Cc1ccccc1CNC(=O)C1CN(Cc2ccccc2)c2nc(NCc3ccccc3)nc3[nH]nc1c23 (stereo not drawn) [Compound 233, 6-benzyl-4-(benzylamino)-N-(2-methylbenzyl)-2,6,7,8-tetrahydro-1,2,3,5,6-pentaazaacenaphthylene-8-carboxamide] | > 79 | 50 to 79 | > 79 | > 79 | > 79 | < 50 |
| O=C(NCc1ccc2c(c1)OCO2)C1CN(Cc2ccccc2)c2nc(NCc3ccccc3)nc3[nH]nc1c23 (stereo not drawn) [Compound 234, N-(1,3-benzodioxol-5-ylmethyl)-6-benzyl-4-(benzylamino)-2,6,7,8-tetrahydro-1,2,3,5,6-pentaazaacenaphthylene-8-carboxamide] | > 79 | > 79 | > 79 | > 79 | > 79 | 50 to 79 |
| O=C(NCCc1ccccc1)C1CN(Cc2ccccc2)c2nc(NCc3ccccc3)nc3[nH]nc1c23 (stereo not drawn) [Compound 235, 6-benzyl-4-(benzylamino)-N-(2-phenylethyl)-2,6,7,8-tetrahydro-1,2,3,5,6-pentaazaacenaphthylene-8-carboxamide] | > 79 | > 79 | > 79 | > 79 | > 79 | > 79 |
| CC(C)CNC(=O)C1CN(Cc2ccccc2)c2nc(NCc3ccccc3)nc3[nH]nc1c23 (stereo not drawn) [Compound 236, 6-benzyl-4-(benzylamino)-N-(2-methylpropyl)-2,6,7,8-tetrahydro-1,2,3,5,6-pentaazaacenaphthylene-8-carboxamide] | < 50 | < 50 | < 50 | < 50 | < 50 | < 50 |
